Experimental data from US9216182B2, “Carbamate/urea derivatives containing piperidin and piperazin rings as H3 receptor inhibitors” (Novartis AG, priority 2011, dated 2015).

melting point: 200.1 to 203.6 °C
Structure (SMILES): CC(C)N1CCN(C(=O)OC2CCN(c3ccc(C(N)=O)cn3)CC2)CC1 [Example 1.1, 1-(5-carbamoylpyridin-2-yl)piperidin-4-yl 4-isopropylpiperazine-1-carboxylate]
